# Several values for one entry are separate records, joined by “and”; a condition that tells them apart may be missing. Equal entries are not always repeated. Entries after “also recorded” stand apart in the source; their conditions may differ. Where two headings read alike, the source gives them in different places.
# Experiments:
# [1] = target: galectin-1 binding to laminin (Homo sapiens, UniProt P09382); assay: ELISA, inhibition of galectin-1 binding to immobilized laminin; settings: for inhibition of galectin-1 binding to laminin (in words): ELISA, FIG. 9B; for inhibition of binding of galectin-1 to laminin: at 156 μM, galectin-1 2.5 μg/ml (0.17 μM)
# galectin-1 binding to laminin, sequence (P09382 2-135 limits assumed): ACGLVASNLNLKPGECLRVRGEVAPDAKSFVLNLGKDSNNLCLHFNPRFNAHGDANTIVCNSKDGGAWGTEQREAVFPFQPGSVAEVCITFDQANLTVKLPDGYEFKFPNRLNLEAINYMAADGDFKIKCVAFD
# Protocol: (§1) Human 90K/MAC-2BP (thereafter called 90K) was purified from transfected EBNA-293 cells (lurisci, I., et al., Clin. Cancer Res. (2000) 6:1389-1393). Laminin was obtained from Boehringer Mannheim GmbH (Germany). The ELISA for galectin binding has been previously described (Tinari, N., et al., Int. J. Cancer (2001) 91:167-172). Briefly, Nunc Maxisorb microtiter wells were coated with 0.5 μg/well of 90K or laminin. Recombinant galectin-1 (2.5 μg/ml or 0.17 μM) was diluted in PBS with 0.1% Tween-20 and added to wells coated with glycoproteins, and galectin-1 binding was detected with anti-galectin-1 rabbit antiserum. In binding-inhibition experiments, recombinant galectin-1 was diluted in PBS-0.1% Tween-20 containing indicated concentration of lactulosamines or lactose.
# [2] = target: galectin-1 binding to 90K/MAC-2BP (Homo sapiens, UniProt P09382); assay: ELISA, inhibition of galectin-1 binding to immobilized 90K; settings: for inhibition of galectin-1 binding to 90K (in words): ELISA, FIG. 9A; for inhibition of binding of galectin-1 to 90K: at 156 μM, galectin-1 2.5 μg/ml (0.17 μM)
# galectin-1 binding to 90K/MAC-2BP, sequence (P09382 2-135 limits assumed): as above
# Protocol: as §1
# CD8+ CTL clone [3] = assay: CD8+ CTL clone survival after TF peptide stimulation, with galectin-1 and inhibitors; type: cell-based; settings: for prevention of cell death induced by galectin-1: 4 days, FIG. 10B; for restoring the ability of CTL's to proliferate: in presence of galectin-1, FIG. 10B
# Description: The ability of L2hmda to restore this activity is especially significant since TDG, a known galectin inhibitor, is toxic. However, L2hmda is not toxic. […] The CD8+ CTL clone was stimulated with TF peptide for 4 days and cell survival (% of starting number) measured by enumerating viability by trypan blue exclusion.
# CD8+ CTL clone [4] = assay: Cytokine production by CD8+ CTL clone after TF peptide stimulation, with galectin-1 and inhibitor; type: cell-based
# Protocol: Treatment in vitro of CD4+ and CD8+T cells with recombinant soluble galectin-1 inhibits their survival and ability to secrete cytokine, such as interferon-γ and IL-2. […] In FIG. 10A, cells are stimulated by TF peptide and the levels of interferon-γ produced measured in nanogram/milliliter (ng/ml). As shown, galectin-1 inhibits interferon-γ secretion in a dose-dependent manner. […] Similar data were seen when another cytokine, IL-2, was measured (not shown).
# [5] = target: recombinant human galectin-1 (Homo sapiens, UniProt P09382); assay: SPR (BIAcore) equilibrium binding to immobilized galectin-1; set-up: key to Galectin-1 binding, KD: NB: non-binder; settings: for binding to galectin-1 (in words): SPR assay
# recombinant human galectin-1, sequence (P09382 whole entry): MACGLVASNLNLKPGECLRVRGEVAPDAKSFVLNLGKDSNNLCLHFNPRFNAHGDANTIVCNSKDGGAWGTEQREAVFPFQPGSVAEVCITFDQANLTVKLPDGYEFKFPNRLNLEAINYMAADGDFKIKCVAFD
# Protocol: (§2) Galectin binding affinity measurements were performed in a surface plasmon resonance (SPR) assay using […] instrument (BIAcore, Inc, Uppsala, Sweden). PBS with 5 mM β-mercaptoethanol was used as running buffer for all experiments. Purified recombinant human galectin-1 and galectin-4 were immobilized at different surface densities on CM5 carboxymethyldextran chip (BIAcore) in the presence of 150 mM lactose, using standard amine coupling chemistry. Galectin immobilization was performed at 5 μl/min flow rate. To ensure the maximum possible immobilization of recombinant proteins, carboxylmethyldextran surface was activated with a 15 min pulse of a mixture of 0.05 M N-hydroxysuccinimide (NHS) with 0.2 M N-ethyl-N′-(dimethylaminopropyl) carbodiimide (EDC). Recombinant galectins, diluted to 30 μg/ml in 10 mM Na Acetate buffer (pH 4.8 for galectin-1 and pH 5.5 for galectin-4) were coupled to the surface during a 15-minute injection. Following galectin injection, remaining activated groups on the surface of the chip were deactivated with a 7 min pulse of 1 M ethanolamine hydrochloride, pH 8.5. Blank, unmodified CM5 surface was used as a negative control for the corrections for refractive index changes due to the presence of lactulosamines.
# (§3) Binding of lactulosamines was performed at 80 μl/min flow rate, with injection times of 15 sec. […] Instead, the equilibrium binding levels were examined and determined the equilibrium binding constant using steady state affinity fitting model (BIAevaluation software version 3.1).
# [6] = target: T1, recombinant human galectin-4 (Homo sapiens, UniProt P56470); assay: SPR (BIAcore) equilibrium binding to immobilized galectin-4; set-up: key to Galectin-4 binding, KD: NB: non-binder; settings: for binding to galectin-4 (in words): SPR assay
# T1 construct: cDNA encoding full-length human galectin-4 was amplified from an EST clone; made in house; host or cells: E. coli BL21 (DE3)pLysS
# T1 sequence (P56470 1-323): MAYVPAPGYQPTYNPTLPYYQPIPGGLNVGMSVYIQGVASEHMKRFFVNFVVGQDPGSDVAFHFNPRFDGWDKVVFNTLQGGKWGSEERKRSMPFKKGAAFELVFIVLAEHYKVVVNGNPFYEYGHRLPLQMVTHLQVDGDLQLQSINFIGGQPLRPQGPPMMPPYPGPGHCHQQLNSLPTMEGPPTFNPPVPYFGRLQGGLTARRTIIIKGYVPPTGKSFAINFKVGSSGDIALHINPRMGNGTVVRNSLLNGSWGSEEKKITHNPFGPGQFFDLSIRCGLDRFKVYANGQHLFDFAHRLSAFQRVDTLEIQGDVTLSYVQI
# Protocol: as §2, §3
# N202.1A tumor cells = assay: N202.1A tumor growth in Neu mice; type: in vivo; settings: 100 μl of 100 μM daily combined with dendritic cell therapy, 25 days, FIG. 11, listed as L2hmda
# Protocol: Neu mice were inoculated on Day 0 with 10^6 N202.1A tumor cells. The animals were divided into four groups of four mice each. On Day 7, groups 2 and 4 were subjected to dendritic cell therapy which involved immunization with 10^6 dendritic cells pulsed with apoptotic N202.1A cells and intraperitoneal injections of recombinant IL-2 (10^4 1.U./injection) from Day 10 to […]. Groups 3 and 4 received injections of 100 μl of 100 μM L2hmda daily.
# cancer cells = settings: cited from earlier work
# breast cancer cells = settings: nude mouse model; cited from earlier work
# [7] = Toxicity statement on galectin inhibitors
# [8] = SPR steady-state analysis, read-out: KD value for galectin-1
# [9] = SPR steady state affinity fit, Table I, read-out: Galectin-4 binding, KD
# [10] = SPR, full-length galectin-4 with two binding domains, read-out: KD for galectin-4
# [11] = SPR steady state affinity fit, Table I, read-out: Galectin-1 binding, KD
# [12] = SPR steady state affinity fit, Table I
molecule,measurement,setting,value
"OCC1OC(OC2C(O)COC(O)(CNCCCCCCNCC3(O)OCC(O)C(OC4OC(CO)C(O)C(O)C4O)C3O)C2O)C(O)C(O)C1O (stereo not drawn) [Dilactulose-hexamethylenediamine, dilactulose-hexamethylenediamine]",inhibition of galectin-1 binding to laminin (in words),[1],most potent inhibitor
same,inhibition of binding of galectin-1 to laminin,[1],about 70%
same,inhibition of galectin-1 binding to 90K (in words),[2],most potent inhibitor
same,inhibition of binding of galectin-1 to 90K,[2],about 80%
same,prevention of cell death induced by galectin-1,CD8+ CTL clone [3]; trypan blue exclusion,prevented the majority of cell death
same,restoring the ability of CTL's to proliferate,CD8+ CTL clone [3],able to restore
same,restoration of interferon secretion,"CD8+ CTL clone [4]; galectin-1 7 μM, L2hmda 200 μM, FIG. 10C",restores the interferon 7 secretion to normal
same,galectin-1 mediated suppression of IFN-γ production by the CTL,CD8+ CTL clone [4]; increasing concentrations (50-200 uM) of inhibitor,completely prevented
same,"half-life, weighted average of the two components of dissociation rate",[5],7 s
same,binding to galectin-1 (in words),[5],superior in binding
same,binding to galectin-1 (in words),[5]; listed as L2hmda,significantly stronger
same,Kd,[5]; [8],~1.5 µM
same,"half-life, fast component",[5]; corresponding to fast koff,3 s
same,"half-life, slow component",[5]; corresponding to slow koff,19 s
same,"koff, fast component","[5]; two-component dissociation model, fast component 40% of overall rate",0.16 to 0.2 s⁻¹
same,"koff, slow component","[5]; two-component dissociation model, slow component 60% of overall rate",0.036 s⁻¹
same,binding to galectin-4 (in words),[6],superior in binding
same,Kd,[6]; [9],78 µM and 83 µM and 105 µM and 115 µM
same,Kd,[6]; [10],~80 µM
same,tumor volume,N202.1A tumor cells,superior to treatment with either alone; also recorded: very little tumor volume enhancement
CC(NCC(=O)C(O)C(OC1OC(CO)C(O)C(O)C1O)C(O)CO)C(=O)O [Lactulose-D-alanine],Kd,[5]; [11],133 µM
same,Kd,[6]; [9],1010 µM
CC(C)CC(NCC(=O)C(O)C(OC1OC(CO)C(O)C(O)C1O)C(O)CO)C(=O)O [Lactulose-D-leucine],Kd,[5]; [11],128 µM and 223 µM
same,Kd,[6]; [9],770 µM and 880 µM and 1090 µM
O=C(O)CCCNCC(=O)C(O)C(OC1OC(CO)C(O)C(O)C1O)C(O)CO [Lactulose-L-GABA],Kd,[5]; [11],106 µM
same,Kd,[6]; [9],1040 µM
CC(NCC(=O)C(O)C(OC1OC(CO)C(O)C(O)C1O)C(O)CO)C(=O)O [Lactulose-L-alanine],Kd,[5]; [11],150 µM
same,Kd,[6]; [9],1490 µM and 1720 µM
O=C(O)C(Cc1c[nH]cn1)NCC(=O)C(O)C(OC1OC(CO)C(O)C(O)C1O)C(O)CO [Lactulose-L-histidine],Kd,[5]; [11],191 µM
same,Kd,[6]; [9],2280 µM
CCC(C)C(NCC(=O)C(O)C(OC1OC(CO)C(O)C(O)C1O)C(O)CO)C(=O)O [Lactulose-L-isoleucine],Kd,[5]; [11],129 µM
same,Kd,[6]; [9],550 µM
"CC(C)CC(NCC(=O)C(O)C(OC1OC(CO)C(O)C(O)C1O)C(O)CO)C(=O)O [Lactulose-L-leucine, lactulose-L-leucine]",inhibition of binding of galectin-1 to laminin,[1],~40%
same,inhibition of binding of galectin-1 to 90K,[2],about 50%
same,binding to galectin-1 (in words),[5],could bind
same,Kd,[5]; [11],113 µM and 200 µM
same,Kd,[5]; [8],~110 µM
same,adhesion of cancer cells to endothelium,cancer cells,blocks
same,Kd,[6]; [9],505 µM and 800 µM and 1010 µM
same,Kd,[6]; [10],~800 µM
same,clonogenic growth and metastasis of breast cancer cells,breast cancer cells,block
CSCCC(NCC(=O)C(O)C(OC1OC(CO)C(O)C(O)C1O)C(O)CO)C(=O)O [Lactulose-L-methionine],Kd,[5]; [11],127 µM
same,Kd,[6]; [9],1270 µM
O=C(O)C(Cc1ccccc1)NCC(=O)C(O)C(OC1OC(CO)C(O)C(O)C1O)C(O)CO [Lactulose-L-phenylalanine],Kd,[5]; [11],200 µM
same,Kd,[6]; [9],1090 µM and 1260 µM
O=C(CN1CCCC1C(=O)O)C(O)C(OC1OC(CO)C(O)C(O)C1O)C(O)CO [Lactulose-L-proline],inhibition of binding of galectin-1 to laminin,[1],~40%
same,inhibition of binding of galectin-1 to 90K,[2],about 50%
same,Kd,[5]; [11],70 µM
same,Kd,[6]; [9],530 µM
CC(O)C(NCC(=O)C(O)C(OC1OC(CO)C(O)C(O)C1O)C(O)CO)C(=O)O [Lactulose-L-threonine],Kd,[5]; [11],376 µM
same,Kd,[6]; [9],3830 µM
CC(C)C(NCC(=O)C(O)C(OC1OC(CO)C(O)C(O)C1O)C(O)CO)C(=O)O [Lactulose-L-valine],Kd,[5]; [11],158 µM
same,Kd,[6]; [9],719 µM and 730 µM
O=C(O)CNCC(=O)C(O)C(OC1OC(CO)C(O)C(O)C1O)C(O)CO (stereo not drawn) [Lactulose-glycine],inhibition of binding of galectin-1 to laminin,[1],~10%
same,inhibition of binding of galectin-1 to 90K,[2],about 20%
same,Kd,[5]; [11],102 µM
same,Kd,[6]; [9],790 µM
"OC[C@H]1O[C@H](O[C@H]2[C@H](O)[C@@H](O)[C@H](O)O[C@@H]2CO)[C@H](O)[C@@H](O)[C@@H]1O [Maltose, reference compound]",binding to galectin-1 (in words),[5],unable to bind
same,"Galectin-1 binding, KD",[5]; [12],NB
same,binding to galectin-4 (in words),[6],unable to bind
same,"Galectin-4 binding, KD",[6]; [12],NB
"OC[C@H]1O[C@@](CO)(O[C@H]2O[C@H](CO)[C@@H](O)[C@H](O)[C@H]2O)[C@@H](O)[C@@H]1O [Sucrose, reference compound]",binding to galectin-1 (in words),[5],unable to bind
same,"Galectin-1 binding, KD",[5]; [12],NB
same,binding to galectin-4 (in words),[6],unable to bind
same,"Galectin-4 binding, KD",[6]; [12],NB
"OC[C@H]1O[C@@H](S[C@@H]2O[C@H](CO)[C@H](O)[C@H](O)[C@H]2O)[C@H](O)[C@@H](O)[C@H]1O [TDG, thiodigalactolate, reference compound]",prevention of cell death induced by galectin-1,CD8+ CTL clone [3]; trypan blue exclusion,prevented the majority of cell death
same,restoring the ability of CTL's to proliferate,CD8+ CTL clone [3],able to restore
same,toxicity,[7],toxic
"OC[C@H]1O[C@@H](O[C@H]2[C@H](O)[C@@H](O)[C@H](O)O[C@@H]2CO)[C@H](O)[C@@H](O)[C@H]1O [β-lactose, reference compound]",inhibition of galectin-1 binding to laminin (in words),[1],inhibited
same,inhibition of binding of galectin-1 to laminin,[1],~10%
same,inhibition of galectin-1 binding to 90K (in words),[2],inhibited
same,inhibition of binding of galectin-1 to 90K,[2],about 20%
same,binding to galectin-1 (in words),[5],able to bind
same,binding to galectin-4 (in words),[6],able to bind
fructose-D-leucine,binding to galectin-1 (in words),[5],did not
same,binding to galectin-1 (in words),[5]; listed as fructose coupled to leucine,unable to bind
same,"Galectin-1 binding, KD",[5]; [12],NB
same,binding to galectin-4 (in words),[6],unable to bind
same,"Galectin-4 binding, KD",[6]; [12],NB
"galectin-1: recombinant soluble galectin-1, immunosuppressive lectin added to T cells",death of T cells,"CD8+ CTL clone [3]; over the 4 day period, trypan blue exclusion",90%
same,IFN-γ production (ELISA),"CD8+ CTL clone [4]; supernatants 48 hr after stimulation, galectin-1 0-7 uM",suppressed in a dose dependent fashion

# Source: US20070167405A1, “Galectins -1 and -4 in tumor development” (priority 2001, published 2007)
